According to US20260297042A1, “BIARYLAMIDE DERIVATIVES AND THEIR USE AS PKMYT1 INHIBITORS” (CANCER RESEARCH TECHNOLOGY LIMITED, priority 2023, published 2026):
Where a name gives a salt, the structure may show the parent alone.

Experiments:
WEE1 = biological target: T1, WEE1 (Homo sapiens, UniProt P30291); test: Selectivity versus WEE1 assay (ADP-Glo enzymatic assay); assay type: biochemical; conditions: for IC50: WEE1 15 nM, ADP-Glo, banded values; for PKMYT1 vs. WEE1 selectivity: fold difference in selectivity for PKMYT1 over WEE1, banded
T1 construct: purchased Thermo Fisher PR7373A
Outline: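 ADP-Glo luminescent read-out after a 60-min, 26 °C kinase reaction of 15 nM WEE1 with 30 µM ATP, in HEPES pH 7.5 buffer containing MgCl2, EGTA, Brij-35 and 1% DMSO. IC50 accepted only when replicate values agree within 3-fold and curve fit r2 exceeds 0.9.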

Human PKMYT1 = biological target: T2, Human PKMYT1 (Homo sapiens, UniProt Q99640); test: PKMYT1 biochemical ADP-Glo enzymatic assay; conditions: PKMYT1 kinase domain 15 nM; ADP-Glo; banded values
T2 construct: Human PKMYT1 75-362 was cloned as a TEV cleavable 6xHis fusion; 6xHis (TEV cleavable) (cleaved yes); made in house; host or cells: bacterial cells
T2 sequence (Q99640 75-362): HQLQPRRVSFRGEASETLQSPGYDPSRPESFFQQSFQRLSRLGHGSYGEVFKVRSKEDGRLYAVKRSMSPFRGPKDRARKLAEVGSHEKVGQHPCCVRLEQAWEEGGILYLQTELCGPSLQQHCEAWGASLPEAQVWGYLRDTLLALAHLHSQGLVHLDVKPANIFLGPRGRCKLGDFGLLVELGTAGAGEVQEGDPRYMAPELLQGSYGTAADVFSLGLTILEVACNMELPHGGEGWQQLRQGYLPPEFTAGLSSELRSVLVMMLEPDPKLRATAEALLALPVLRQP
Outline: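 IC50 values come from 10-point 3-fold series, with replicates required within 3-fold and r2 >0.9. ADP formed by PKMYT1 intrinsic ATPase (500 uM ATP, 60 min, 26° C.) was quantified by ADP-Glo luminescence. The enzyme was the TEV-cleaved kinase domain 75-362 at 15 nM, in HEPES pH 7.5 buffer.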

T1 sequence (P30291 whole entry): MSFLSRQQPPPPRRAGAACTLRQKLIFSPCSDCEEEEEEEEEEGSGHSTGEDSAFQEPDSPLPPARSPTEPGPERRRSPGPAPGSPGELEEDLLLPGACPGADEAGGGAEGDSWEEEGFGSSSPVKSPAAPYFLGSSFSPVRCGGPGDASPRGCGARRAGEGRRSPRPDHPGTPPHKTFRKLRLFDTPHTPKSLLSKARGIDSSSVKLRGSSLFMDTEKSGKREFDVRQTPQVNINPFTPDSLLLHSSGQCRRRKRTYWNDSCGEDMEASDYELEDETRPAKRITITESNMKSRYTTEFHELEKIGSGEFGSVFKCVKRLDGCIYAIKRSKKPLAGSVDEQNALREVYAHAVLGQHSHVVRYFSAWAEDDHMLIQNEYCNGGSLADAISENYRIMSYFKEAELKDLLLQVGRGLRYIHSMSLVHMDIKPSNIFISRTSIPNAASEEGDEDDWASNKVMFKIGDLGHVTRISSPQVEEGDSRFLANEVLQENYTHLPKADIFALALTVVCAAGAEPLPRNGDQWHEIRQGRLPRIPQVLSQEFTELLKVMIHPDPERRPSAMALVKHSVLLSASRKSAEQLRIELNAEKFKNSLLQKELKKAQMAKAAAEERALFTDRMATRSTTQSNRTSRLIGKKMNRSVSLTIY

SMILES	IC50 (WEE1)	PKMYT1 vs. WEE1 selectivity (WEE1)	IC50 (Human PKMYT1)
CCC(C(=O)N(C)C)n1ccc(Nc2ncc(C(=O)Nc3c(C)ccc(O)c3C)s2)n1 (stereo not drawn) [BAA-507, 2-((1-(1-(dimethylamino)-1-oxobutan-2-yl)-1H-pyrazol-3-yl)amino)-N-(3-hydroxy-2,6-dimethylphenyl)thiazole-5-carboxamide]	> 11 µM	X (100-<1000 fold)	< 50 nM
Cc1ccc(O)c(C)c1NC(=O)c1cnc(Nc2cc(C)n(C(C)C(=O)N3CCCC3)n2)s1 (stereo not drawn) [BAA-508, N-(3-hydroxy-2,6-dimethylphenyl)-2-((5-methyl-1-(1-oxo-1-(pyrrolidin-1-yl)propan-2-yl)-1H-pyrazol-3-yl)amino)thiazole-5-carboxamide]	> 11 µM	W (10-<100 fold)	50 to 1000 nM
Cc1ccc(O)c(C)c1NC(=O)c1cnc(Nc2cc(C)n(C(C)C(=O)N3CCN(C)CC3)n2)s1 (stereo not drawn) [BAA-511, N-(3-hydroxy-2,6-dimethylphenyl)-2-((5-methyl-1-(1-(4-methylpiperazin-1-yl)-1-oxopropan-2-yl)-1H-pyrazol-3-yl)amino)thiazole-5-carboxamide]	> 11 µM	W (10-<100 fold)	50 to 1000 nM
CC(=O)Nc1ccc(Nc2ncc(C(=O)Nc3c(C)ccc(O)c3C)s2)cc1 [BAA-513, 2-((4-Acetamidophenyl)amino)-N-(3-hydroxy-2,6-dimethylphenyl)thiazole-5-carboxamide]	1 to 11 µM	X (100-<1000 fold)	< 50 nM
Cc1cn(CC(=O)N(C)CC(F)(F)F)nc1Nc1ncc(C(=O)Nc2c(C)ccc(O)c2C)s1 [BAA-514, N-(3-hydroxy-2,6-dimethylphenyl)-2-((4-methyl-1-(2-(methyl(2,2,2-trifluoroethyl)amino)-2-oxoethyl)-1H-pyrazol-3-yl)amino)thiazole-5-carboxamide]	1 to 11 µM	X (100-<1000 fold)	< 50 nM
Cc1ccc(O)c(C)c1NC(=O)c1cnc(Nc2ccc3c(c2)NC(=O)CO3)s1 [BAA-515, N-(3-hydroxy-2,6-dimethylphenyl)-2-((3-oxo-3,4-dihydro-2H-benzo[b][1,4]oxazin-6-yl)amino)thiazole-5-carboxamide]	1 to 11 µM	X (100-<1000 fold)	< 50 nM
Cc1cc(C)c(NC(=O)c2cnc(Nc3ccn(CC(=O)N4CCCC4)n3)s2)c(C)c1O [BAA-516, N-(3-hydroxy-2,4,6-trimethylphenyl)-2-((1-(2-oxo-2-(pyrrolidin-1-yl)ethyl)-1H-pyrazol-3-yl)amino)thiazole-5-carboxamide]	> 11 µM	X (100-<1000 fold)	50 to 1000 nM
Cc1ccc(O)c(C)c1NC(=O)c1cnc(Nc2cc(C)n(CCC#N)n2)s1 [BAA-518, 2-((1-(2-cyanoethyl)-5-methyl-1H-pyrazol-3-yl)amino)-N-(3-hydroxy-2,6-dimethylphenyl)thiazole-5-carboxamide]	1 to 11 µM	W (10-<100 fold)	< 50 nM
Cc1c(O)ccc(Br)c1NC(=O)c1cnc(Nc2ccn(CC(=O)N3CCCC3)n2)s1 [BAA-519, N-(6-Bromo-3-hydroxy-2-methyl-phenyl)-2-[[1-(2-oxo-2-pyrrolidin-1-yl-ethyl)pyrazol-3-yl]amino]thiazole-5-carboxamide]	> 11 µM	X (100-<1000 fold)	< 50 nM
Cc1ccc(O)c(C)c1NC(=O)c1cnc(Nc2cnn(C)c2C)s1 [BAA-520, 2-((1,5-dimethyl-1H-pyrazol-4-yl)amino)-N-(3-hydroxy-2,6-dimethylphenyl)thiazole-5-carboxamide]	> 11 µM	X (100-<1000 fold)	50 to 1000 nM
Cc1ccc(O)c(C)c1NC(=O)c1cnc(Nc2cn(C)nc2C)s1 [BAA-521, 2-((1,3-dimethyl-1H-pyrazol-4-yl)amino)-N-(3-hydroxy-2,6-dimethylphenyl)thiazole-5-carboxamide]	> 11 µM	X (100-<1000 fold)	50 to 1000 nM
Cc1cn(CC(=O)N(C)CCS(C)(=O)=O)nc1Nc1ncc(C(=O)Nc2c(C)ccc(O)c2C)s1 [BAA-522, N-(3-hydroxy-2,6-dimethylphenyl)-2-((4-methyl-1-(2-(methyl(2-(methylsulfonyl)ethyl)amino)-2-oxoethyl)-1H-pyrazol-3-yl)amino)thiazole-5-carboxamide]	1 to 11 µM	X (100-<1000 fold)	< 50 nM
Cc1cn(CC(=O)N(C)CCO)nc1Nc1ncc(C(=O)Nc2c(C)ccc(O)c2C)s1 [BAA-524, N-(3-Hydroxy-2.6-dimethylphenyl)-2-((1-(2-((2-hydroxyethyl)(methyl)amino)-2-oxoethyl)-4-methyl-1H-pyrazol-3-yl)amino)thiazole-5-carboxamide]	> 11 µM	Y (1000-5000 fold)	< 50 nM

Continued, values first:

IC50 (WEE1)	PKMYT1 vs. WEE1 selectivity (WEE1)	IC50 (Human PKMYT1)	SMILES
> 11 µM	X (100-<1000 fold)	50 to 1000 nM	Cc1ccc(O)c(C)c1NC(=O)c1cnc(Nc2ccccc2C2CC2)s1 [BAA-526, 2-((2-cyclopropylphenyl)amino)-N-(3-hydroxy-2,6-dimethylphenyl)thiazole-5-carboxamide]
> 11 µM	W (10-<100 fold)	50 to 1000 nM	Cc1ccc(O)c(C)c1NC(=O)c1cnc(Nc2cnn(CC(=O)N3CCCC3)c2)s1 [BAA-527, N-(3-hydroxy-2,6-dimethylphenyl)-2-((1-(2-oxo-2-(pyrrolidin-1-yl)ethyl)-1H-pyrazol-4-yl)amino)thiazole-5-carboxamide]
> 11 µM	X (100-<1000 fold)	50 to 1000 nM	COc1ccccc1Nc1ncc(C(=O)Nc2c(C)ccc(O)c2C)s1 [BAA-528, N-(3-hydroxy-2,6-dimethylphenyl)-2-((2-methoxyphenyl)amino)thiazole-5-carboxamide. TFA salt]
> 11 µM	X (100-<1000 fold)	50 to 1000 nM	Cc1ccc(O)c(C)c1NC(=O)c1cnc(Nc2cccc3c2OCCO3)s1 [BAA-529, 2-((2,3-dihydrobenzo[b][1,4]dioxin-5-yl)amino)-N-(3-hydroxy-2,6-dimethylphenyl)thiazole-5-carboxamide. TFA salt]
> 11 µM	X (100-<1000 fold)	50 to 1000 nM	Cc1ccc(O)c(C)c1NC(=O)c1cnc(Nc2cccc3c2OCC3)s1 [BAA-530, 2-((2,3-dihydrobenzofuran-7-yl)amino)-N-(3-hydroxy-2,6-dimethylphenyl)thiazole-5-carboxamide. TFA salt]
> 11 µM	Y (1000-5000 fold)	50 to 1000 nM	Cc1ccc(O)c(C)c1NC(=O)c1cnc(Nc2cccc3ccoc23)s1 [BAA-531, 2-(benzofuran-7-ylamino)-N-(3-hydroxy-2,6-dimethylphenyl)thiazole-5-carboxamide]
1 to 11 µM	X (100-<1000 fold)	< 50 nM	CCN(CCC#N)C(=O)Cn1cc(C)c(Nc2ncc(C(=O)Nc3c(C)ccc(O)c3C)s2)n1 [BAA-532, 2-((1-(2-((2-cyanoethyl)(ethyl)amino)-2-oxoethyl)-4-methyl-1H-pyrazol-3-yl)amino)-N-(3-hydroxy-2,6-dimethylphenyl)thiazole-5-carboxamide]
